The text below walks through data of PubChem BioAssay AID1996.

Values after ≈ are worked out from the molar mass of the structure shown.

The conditions of the series: buffer; pH 7.4; 200.0 µM.
As for `Cc1cc(C(=O)OCC(=O)NC(C)C)c2ccccc2n1`, the kinetic solubility was above 0.0429 mg/mL. With `CCc1cn([C@H]2C[C@H](O)[C@@H](CO)O2)c(=O)[nH]c1=O` the figure was above 0.0384 mg/mL; with `Cc1ccc(SCc2ccc(C(=O)N3CCCCC3)cc2)cc1`, 0.0061 mg/mL (≈ 18.7 µM). With `Fc1cccc(Nc2ncnc3sccc23)c1`, the kinetic solubility worked out at 0.0057 mg/mL (≈ 23.2 µM). `O=C(/C=C/c1cccs1)N1CCN(c2ccc(F)cc2)CC1` returned a kinetic solubility of 0.0031 mg/mL (≈ 9.8 µM). With `CC1(C)Cc2ccccc2C(C(=O)c2ccccc2)=N1` the figure was 0.031 mg/mL (≈ 118 µM).

Regarding `CC1Cc2cc(/C=C3/SC(=S)N(C)C3=O)ccc2O1` (stereo not drawn), the kinetic solubility was below 0.0006 mg/mL. With `CSc1ncc(Cl)c(C(=O)Nc2ccc(C)c(C)c2)n1` the figure was 0.0007 mg/mL (≈ 2.27 µM); with `Cc1snc(SCc2ccc(F)cc2)c1C#N`, 0.003 mg/mL (≈ 11.3 µM). The molecule `CN1CCN(CCOc2ccc(-c3ccccc3)cc2)CC1.Cl` yielded a solubility (kinetic) above 0.0499 mg/mL. With `CCOc1ccccc1NC(=O)/C(C#N)=C/c1cccnc1` the figure was 0.0188 mg/mL (≈ 64.1 µM); with `O=C(COC(=O)COc1ccccc1)NCc1ccco1`, above 0.0434 mg/mL; with `c1csc(-c2noc(CN3CCc4sccc4C3)n2)c1`, 0.0273 mg/mL (≈ 90 µM). Next, `Cc1cc(C)cc(NC(=S)N2CCC(NC(=O)C3CC3)CC2)c1`: above 0.0497 mg/mL.

On to `O=c1c2c3c(sc2nc(NCCO)n1-c1ccccc1)CCCC3`, for which the solubility (kinetic) was 0.0068 mg/mL (≈ 19.9 µM). `COc1ccc(CN(C)C(=S)Nc2ccc(Cl)cc2)cc1` displayed a solubility (kinetic) of 0.0135 mg/mL (≈ 42.1 µM). This solubility kinetic is about 2-fold higher than that of the molecule before. Next, `COc1ccccc1N1CCN(Cc2ccc(C(=O)O)cc2)CC1`: 0.0422 mg/mL (≈ 129 µM). Next, `Cc1ccccc1-c1nnc(SC(C)C(=O)NC2CCCC2)o1` (stereo not drawn): above 0.0497 mg/mL.

Molecule `CC1CCCC(C)N1C(=O)COC(=O)c1cncc(Br)c1` (stereo not drawn) showed a kinetic solubility above 0.0533 mg/mL. Turning to `Cc1cc(C)cc(NC(=O)C(=O)NCCCN2CCOCC2)c1`, the solubility (kinetic) is above 0.0479 mg/mL.

Take `O=C(CSc1ncccn1)Nc1cc(Cl)ccc1[N+](=O)[O-]`: the kinetic solubility worked out at 0.0047 mg/mL (≈ 14.5 µM). On to `CC1=N/C(=C/c2cc(Br)cc(Br)c2O)C(=O)O1`, for which the solubility (kinetic) came out at 0.0028 mg/mL (≈ 7.76 µM). The molecule `COc1cccc(/C=C2\N=C(C3CCCCC3)OC2=O)c1OC` had a kinetic solubility of 0.0164 mg/mL (≈ 52 µM). Take `COc1ccccc1C(=O)COC(=O)c1cnc(C)cn1`: the solubility (kinetic) is above 0.0429 mg/mL. Consider `Cc1ccc(CNS(=O)(=O)c2c(N)n(C)c(=O)n(C)c2=O)cc1`, for which the solubility (kinetic) is 0.0413 mg/mL (≈ 122 µM). `C=CCNC(=O)C1CCC(=O)N1S(=O)(=O)c1ccc(C)cc1` (stereo not drawn) showed a solubility (kinetic) above 0.0484 mg/mL. In turn, `CC(=O)c1sc(NC(=O)COc2ccc(Cl)cc2Cl)nc1C` showed a kinetic solubility below 0.0004 mg/mL. With `O=C(COC(=O)/C=C/c1ccccc1Cl)NCc1ccco1` the figure was 0.0144 mg/mL (≈ 45 µM); with `Cc1ccc(-c2c[nH]c(=S)n2-c2ccccc2)cc1`, 0.006 mg/mL (≈ 22.5 µM); with `CCOC(=O)c1cc(C)n(-c2ccc(Cl)cc2)c1C`, 0.0012 mg/mL (≈ 4.32 µM). On to `CO/N=C(\c1ccccc1)c1cccnc1`, for which the kinetic solubility was 0.0232 mg/mL (≈ 109 µM). Compared with the last molecule, the solubility kinetic is about 19-fold higher. With `O=C(CSc1nnc(NC(=O)c2ccccc2F)s1)NC1CC1` the figure was above 0.0529 mg/mL. As for `COc1ccc(C2(C)NC(=O)N(CC(=O)N(c3ccccc3)C3CCS(=O)(=O)C3)C2=O)cc1` (stereo not drawn), the solubility (kinetic) was found to be 0.0528 mg/mL (≈ 112 µM). The molecule `O=S(=O)(Nc1ccccc1Br)c1cccs1` gave a kinetic solubility above 0.0477 mg/mL. With `Cc1nc(C(N)=O)c(N)n1CCc1ccccc1` the figure was 0.0357 mg/mL (≈ 146 µM); with `COc1cccc(/C=c2\s/c(=C\C(=O)C(C)(C)C)[nH]c2=O)c1`, 0.0021 mg/mL (≈ 6.62 µM); with `CN(Cc1ccc(F)cc1)C(=O)c1sccc1-c1ccccc1`, 0.0214 mg/mL (≈ 65.8 µM). Next, `Cc1ccc(N(CC2CO2)S(=O)(=O)c2ccccc2[N+](=O)[O-])cc1` (stereo not drawn): 0.0367 mg/mL (≈ 105 µM); `Cc1nn(C)cc1CN(C)S(=O)(=O)c1cccc([N+](=O)[O-])c1`: above 0.0487 mg/mL; `CC(C)CC(=O)NC(=S)Nc1ccc(N2CCCC2)c(Cl)c1`: below 0.0002 mg/mL.

As to `Clc1ccc(N2CCN(c3ccnc(Cl)n3)CC2)cc1`, the kinetic solubility was 0.0023 mg/mL (≈ 7.44 µM). With `O=C(Cc1ccccc1)Nc1ccc(NC(=O)c2cccs2)cc1` the figure was below 0.0004 mg/mL. Turning to `CCc1ccc(Nc2ccc3nonc3c2[N+](=O)[O-])cc1`, the kinetic solubility was below 0.0002 mg/mL. With `CC1CC(Nc2ccccc2)c2ccccc2N1C(=O)c1ccncc1` (stereo not drawn) the figure was 0.0259 mg/mL (≈ 75.4 µM). Next, `COc1ccccc1NC(=O)COC(=O)c1ccc(S(=O)(=O)N2CCCCCC2)cc1`: 0.0026 mg/mL (≈ 5.82 µM); `CC(O)c1cccc(NC(=O)Cc2cccc3ccccc23)c1` (stereo not drawn): 0.0447 mg/mL (≈ 146 µM). With `O=C(O)COCC(=O)Nc1ccc2c(c1)oc1ccccc12` the figure was above 0.0449 mg/mL; with `CCCCNC(=O)c1ccc(CS(=O)(=O)c2ccc(C)cc2)o1`, above 0.0503 mg/mL.

As for `Cc1ccc(OCCCN2CCOCC2)cc1`, the kinetic solubility came to 0.0267 mg/mL (≈ 113 µM). Next, `COc1ccc(C)cc1NC(=O)NC1CCCc2ccccc21` (stereo not drawn): below 0.0003 mg/mL; `CCOc1ccccc1N1CN(Cc2ccccc2)CNC1=S`: above 0.0491 mg/mL; `COc1ccc(CC(=O)N2CCN(c3cccc(Cl)c3)CC2)cc1OC`: 0.0487 mg/mL (≈ 130 µM). With `O=C(C1CCC1)N1CCN(S(=O)(=O)c2ccccc2)CC1` the figure was above 0.0463 mg/mL. Consider `NC(=O)c1cc(Cl)ccc1OCC(=O)NC1CC1`, for which the kinetic solubility was above 0.0403 mg/mL. With `CCCCc1nc2cc(C(=O)NCc3cn(C)nc3C)ccc2o1` the figure was above 0.049 mg/mL. With `COc1ccc(OC)c(NC(=O)COC(=O)CCCN=C2NS(=O)(=O)c3ccccc32)c1` the figure was 0.0064 mg/mL (≈ 13.9 µM). For the molecule `Cc1cc(C)c(C)c(S(=O)(=O)N[C@@H](C)C(=O)OCC(N)=O)c1C`, the solubility (kinetic) was above 0.0514 mg/mL. With `Cn1cc(C(=O)OCC(=O)Nc2ccccc2)c2ccccc21` the figure was 0.0078 mg/mL (≈ 25.3 µM); with `O=C(COC(=O)c1ccco1)NC1CCCc2ccccc21` (stereo not drawn), above 0.0449 mg/mL. The molecule `CCCCN(C(=O)C1CCCO1)c1c(N)n(CCC)c(=O)[nH]c1=O` (stereo not drawn) showed a solubility (kinetic) above 0.0508 mg/mL. With `Cc1nn(CC(=O)OCC(=O)NCCc2ccc(F)cc2)c(C)c1[N+](=O)[O-]` the figure was above 0.0568 mg/mL; with `CC1CCCCN1C(=S)NC(=O)c1cccs1` (stereo not drawn), above 0.0403 mg/mL. Next, `COCC1CCN(C(=O)c2oc3c(F)cccc3c2C)C1` (stereo not drawn): 0.0373 mg/mL (≈ 128 µM); `COc1cccc(CC2(CO)CCN(S(=O)(=O)N(C)C)CC2)c1`: above 0.0514 mg/mL; `Cl.O=C(CN1CCCC1)NCc1ccccc1`: 0.0326 mg/mL.

With `Cc1cc(C(=O)CN2C(=O)C(=O)N(Cc3ccccc3)C2=O)c(C)n1Cc1ccccc1`, the solubility (kinetic) was 0.004 mg/mL (≈ 9.31 µM). With `COCCNc1nnc(Cc2ccccc2)c(=O)[nH]1` the figure was above 0.039 mg/mL; with `Cn1cnc(NCc2ccccc2)c1[N+](=O)[O-]`, 0.0012 mg/mL (≈ 5.17 µM); with `Brc1ccc(-c2cn3ccccc3n2)cc1`, 0.0008 mg/mL (≈ 2.93 µM). Regarding `OCC(O)CNC(=S)NC1CCCCC1` (stereo not drawn), the solubility (kinetic) was above 0.0349 mg/mL. Next, `COc1cc(N)c(Cl)cc1C(=O)OCC(=O)NCC1CCCO1` (stereo not drawn): above 0.0514 mg/mL; `CCn1cc(C(=O)NCc2ccccc2F)c(=O)c2ccc(C)nc21`: 0.0029 mg/mL (≈ 8.55 µM); `Cc1ccc(C)c(NC(=O)CN(C)C(=O)c2cc3ccccc3oc2=O)c1`: above 0.0547 mg/mL.

In the case of `CC(Sc1nncn1C)C(=O)NCCC1=CCCCC1` (stereo not drawn), the solubility (kinetic) was above 0.0442 mg/mL.

Turning to `CCOc1c(Nc2ccc(C(C)C)cc2)c(=O)c1=O`, the kinetic solubility stood at 0.0253 mg/mL (≈ 97.6 µM). In turn, `O=C(COc1ccc2ccccc2c1)Nc1cccnc1Cl` had a kinetic solubility below 0.0003 mg/mL.

Turning to `NC(=O)c1sc2nc3c(cc2c1N)CCC3`, the solubility (kinetic) was 0.0313 mg/mL (≈ 134 µM). Take `COCCCNc1nc(N)c([N+](=O)[O-])c(NC2CCCCC2)n1`: the kinetic solubility came out at 0.0028 mg/mL (≈ 8.63 µM). This solubility kinetic lies about 11-fold lower than the previous one.

The molecule `COc1ccc(CCNC(=O)CCC(=O)NC2CCCC(C)C2C)cc1OC` (stereo not drawn) gave a kinetic solubility of 0.0393 mg/mL (≈ 101 µM). With `CC1=CC2=NC(=O)/C(=C/c3cccn3Cc3ccccc3)C(=N)N2O1` the figure was 0.0027 mg/mL (≈ 8.12 µM); with `Cn1c(Cc2ccccc2)nnc1SCC(=O)NC1CCCC1`, above 0.0496 mg/mL. Next, `CCN(CC(=O)Nc1ccc2c(c1)OCCO2)CC(=O)Nc1ccccc1C(F)(F)F.O=C(O)C(=O)O`: 0.0477 mg/mL; `c1ccc(CCNCC2COc3ccccc3O2)cc1` (stereo not drawn): above 0.0404 mg/mL. Consider `c1ccc(OCCCn2ccnc2)cc1`, for which the kinetic solubility was 0.0251 mg/mL (≈ 124 µM). Next, `CC(=O)Nc1cccc(NC(=O)c2cccc3cccnc23)c1`: 0.0192 mg/mL (≈ 62.9 µM). With `N#CC1(NC(=O)COc2ccc(C(N)=O)cc2)CCCC1` the figure was above 0.0431 mg/mL. Turning to `Cc1ccc(NC(=O)CN2C(=O)c3ccccc3S2(=O)=O)c(C)c1`, the solubility (kinetic) amounted to 0.0027 mg/mL (≈ 7.84 µM). `Cc1noc(C)c1COc1cccc(C(=O)OC(C)C#N)c1` (stereo not drawn) came in with a kinetic solubility of 0.0432 mg/mL (≈ 144 µM). Next, `CC1CN(C)C(C)CC1OC(=O)C(c1ccccc1)c1ccccc1` (stereo not drawn): 0.0421 mg/mL (≈ 125 µM); `CN(CCc1ccccn1)c1ccc([N+](=O)[O-])cn1`: 0.0381 mg/mL (≈ 148 µM); `O=C(Cc1ccccc1)NCC(=O)OCc1cccc([N+](=O)[O-])c1`: above 0.0492 mg/mL. With `Nc1ccc(CCN2CCN(c3cccc(C(F)(F)F)c3)CC2)cc1` the figure was above 0.0524 mg/mL; with `CCOC(=O)CNC(=O)Cc1ccc(OC)cc1`, above 0.0377 mg/mL.

In turn, `COCCn1c(SCC(=O)Nc2cccnc2Cl)nc2ccccc21` returned a solubility (kinetic) of 0.0074 mg/mL (≈ 19.6 µM). The molecule `O=C(CSc1nc2cc(Cl)ccc2s1)NCC1CCCO1` (stereo not drawn) displayed a kinetic solubility above 0.0514 mg/mL.

Molecule `O=C(NCc1ccc2c(c1)OCO2)C(=S)N1CCOCC1` had a kinetic solubility above 0.0463 mg/mL. With `Cc1nc2c(=O)n(-c3ccc(F)cc3F)nc(C)c2s1` the figure was above 0.044 mg/mL. Next, `Cc1ccc(-c2nc(N3CCN(C)CC3)c3ccccc3n2)cc1.Cl`: 0.049 mg/mL. `CC(OC(=O)CCOc1ccccc1)C(=O)Nc1ccc(Cl)cn1` (stereo not drawn) showed a solubility (kinetic) of 0.0343 mg/mL (≈ 98.3 µM). With `CCN(CC)CCN(C(=O)/C=C/c1cccs1)c1nc2ccc(F)cc2s1.Cl` the figure was below 0.0003 mg/mL; with `N/C(=N\S(=O)(=O)c1ccc(Cl)cc1)N1CCOCC1`, above 0.0456 mg/mL. Take `O=S1(=O)CC2SC(=S)N(Cc3ccccc3)C2C1` (stereo not drawn): the solubility (kinetic) turned out to be 0.0018 mg/mL (≈ 6.01 µM). As for `O=C(NC1CCCC1)c1cc(-c2cccc(Cl)c2)on1`, the kinetic solubility amounted to 0.0015 mg/mL (≈ 5.16 µM).
